The numbers were not newly measured in US11534458B2, “Phosphorus-sparing nutritional composition” (Albion Laboratories, Inc., priority 2013, dated 2022), which cites them from elsewhere.

Like-named read-outs stand apart in the source and are kept apart here.

For series [1] the following is noted: phytate-rich diet.
A further series deals with healthy young women. To be noted: for iron absorption increased by a factor of: phytase 10 mg (190 FTU), maize porridge meal.

Consider `O=C1O[C@H]([C@@H](O)CO)C(O)=C1O` [ascorbic acid, reference compound], for which the iron absorption entry in series [1] was “markedly improved”. In addition, the “effect on iron absorption” value with healthy young women (ascorbic acid alone, iron from NaFeEDTA) is reported as “little effect”.
Regarding `[Ca+2]` [calcium], the “decrease of phosphorus absorption” value (for each 500 mg (12.5 mmol) supplemental calcium ingested) is reported as 5.4 mmol and the “decrease of phosphorus absorption” value (for every 500 mg elemental calcium equivalent ingested) is given as 166 mg.

B1: Recombinant A. niger phytase: recombinant Aspergillus niger phytase (microbial 3-phytase enzyme) of literature studies (protein, UniProt P34752 24-467, looked up)
Phytase A: ASRNQSSCDTVDQGYQCFSETSHLWGQYAPFFSLANESVISPEVPAGCRVTFAQVLSRHGARYPTDSKGKKYSALIEEIQQNATTFDGKYAFLKTYNYSLGADDLTPFGEQELVNSGIKFYQRYESLTRNIVPFIRSSGSSRVIASGKKFIEGFQSTKLKDPRAQPGQSSPKIDVVISEASSSNNTLDPGTCTVFEDSELADTVEANFTATFVPSIRQRLENDLSGVTLTDTEVTYLMDMCSFDTISTSTVDTKLSPFCDLFTHDEWINYDYLQSLKKYYGHGAGNPLGPTQGVGYANELIARLTHSPVHDDTSSNHTLDSSPATFPLNSTLYADFSHDNGIISILFALGLYNGTKPLSTTTVENITQTDGFSSAWTVPFASRLYVEMMQCQAEQEPLVRVLVNDRVVPLHGCPVDALGRCTRDSFVRGLSFARSGGDWAECFA
In the case of B1, the “iron absorption increased by a factor of” value is 1.71 in the series with healthy young women (iron given as FeSO4) and 1.23 with healthy young women (iron given as NaFeEDTA).
